Experimental data from patent publication US20240099298A1, “BIOINSECTICIDAL COMPOSITIONS CONTAINING MONOTERPENES AND METHODS OF USE THEREOF” (priority 2017, published 2024).
In brackets after ≈: the same amount, converted by molar mass.

Experiments:
[1] = system: Aedes aegypti (Linnaeus) (mosquito); settings: adult mosquito, exposed 30 minutes, mortality in 24 hours
From the text: (§1) Median Lethal Concentration Tests. […] The species tested included Thrips (M. usitatus), spider mite (T. cinnabarinus), melon fly (B. cucuribitae), cockroach (B. lateralis), housefly (M. domestica), mosquito (A. aegypti), parasitic wasp (T. chilonis) and fruit fly (Drosophila melanogaster). After being exposed to the test chemicals for one hour, adult Thrips, spider mites, and roaches were transferred to another flask. In addition to fresh water, adult Thrips, spider mites, and roaches were then respectively fed with cowpea, fresh blade of eggplant, and peanut oil via filter. […] Mortality of melon fly was observed after three hours of exposure.

[2] = system: Bactrocera cucuribitae (Coquillett) (melon fly); settings: melon fly
From the text: as §1

[3] = system: Blatta lateralis (Walker) (cockroach); settings: cockroach second instar nymphs, exposed one hour
From the text: as §1

[4] = system: Musca domestica (Linnaeus) (housefly); settings: adult housefly, exposed one hour, mortality in 24 hours
From the text: as §1

[5] = system: Tetranychus cinnabarinus (Boisduval) (spider mites); settings: spider mites, exposed one hour
From the text: as §1

[6] = system: M. domestica (housefly); assay: Median lethal time (LT50) test, housefly; format: in vivo, Musca domestica
From the text: All treatments and controls were in triplicate.
Toxicity of Monoterpenes as Fumigants. […] Therefore, to determine how fast the monoterpenes act as fumigants, it was necessary to determine their LT50 values for the target organisms.

[7] = system: Frankliniella occidentalis second-instar nymphs; assay: whole plant or invertebrate; settings: 24 h, second-instar nymphs of F. occidentalis, 24 h after treatment
Description: Chemicals. […] These monoterpenes and the positive control spinosyn A (Bosite Technology, Chongqing, China) were dissolved in acetone (10 g/L).
Insects. F. occidentalis Thrips were provided by the Institute of Vegetables and Flowers, Chinese Academy of Agricultural Sciences (Beijing, China), and kept in a box (19 cm×14 cm×20 cm) at 27±1° C., humidity of 50%-60% and a photoperiod of 16:8 h (light:dark). The population was established with sword beans (Canavalia gladiata). Second-instar nymphs with the same growth were tested.
Insect Assays. […] The leaf blade (2 cm×3 cm) was immersed in the solution for 10 s in the test solution, and then air-dried until there were no water drops on the surface. The concentrations were the same as those used in the insecticide-impregnated membrane method. After the chemical film had been formed for 2 h, the infusion leaves were placed in the bottles. The second-instar nymphs were picked with a soft writing brush to make up ten insects per bottle. The bottles were sealed with plastic wrap. 1% Triton X-100 (m/V) aqueous solution as a blank control. Each treatment was repeated four times. The bottles were placed under temperature of 27±1° C., humidity of 50%-60% and photoperiod of 16:8 h (light:dark). […] The insects were touched with a soft brush and numbers of dead and living Thrips were recorded, followed by calculation of the mortality rates.

[8] = molecular target: recombinant gamma-aminobutyric acid receptor-associated protein (rGABARAP) (Frankliniella occidentalis, UniProt A0A6J1T1Q2); assay: Isothermal titration calorimetry (ITC) binding to rGABARAP; settings: 25° C., pH 7.4
Description: Preparation of recombinant GABARAP (rGABARAP) protein. RNA was extracted from F. occidentalis and cDNA was then synthesized. GABARAP (GenBank accession No. LOC113211372) was obtained after PCR amplification (Stafford-Banks, et al. (2014) Plos One 9:e94447).
The isothermal titration thermal binding measurements were performed with an ITC-200 calorimeter (GE Healthcare, Boston, MA) at 25° C. in a buffer containing 50 mM Tris-HCl and 100 mM NaCl (pH 7.4). […] The MicroCal Origin 7.0 software system was used for data processing. The first run was a pre-run and was excluded from the final data. The amount of protein in the sample pool was constant. […] The experimental bimolecular interaction data from the 18 drops were used to calculate the dissociation constant. The dissociation constant […] was calculated as 1/K (Li, et al. (2018) RSC Advances 8:18952-18958).

[9] = molecular target: rGABARAP^Y174A (Frankliniella occidentalis, UniProt A0A6J1T1Q2); assay: MST binding to rGABARAP mutant; settings: read-out: Kd value, MST
Description: Interaction between ME and rGABARAP. A Nano Temper Monolith NT.115 MST system (Nano Temper, Munich, Germany) was used to assess the binding affinities between the target compounds and rGABARAP according to the published procedures (Zan, et al. (2020) Journal of Agricultural and Food Chemistry 68:6280-6285). Spinosyn A was used as a chemical positive control. Spinosyn A (≥1 nM) can trigger a change of the Cl^− current of insect neuron GABAAR, which is considered to be an insecticidal action mechanism of spinosyn A (Watson (2001) Pesticide Biochemistry and Physiology 71:20-28). Ovalbumin (OVA) (Sangon Biotech, Shanghai, China) is a control protein consisting of 385 amino acid residues. The interaction between OVA and ME was used as a protein control experiment (Huntington, et al. (1995) Protein Science 4:613-621).
Preparation of rGABARAP Mutant and Interaction Between ME and rGABARAP Mutant. […] DNAman was used to convert the nucleic acid sequence into an amino acid sequence and find the Y174 site. Y174 was mutated to A174. The rGABARAP mutant gene loaded into the pMCSG19 vector and the His tags at both ends of the sequence were retained to construct a prokaryotic expression plasmid. The carrier contained a maltose binding protein (MBP) tag that was not cut for verification. However, MBP and ME were used as treatment controls. The mutant plasmid was constructed in Sangon Biotech (Shanghai, China). The protein expression, purification, and desalting procedures of rGABARAP^Y174A mutant and rGABARAP were the same. Subsequently, the binding kinetics of ME and rGABARAP^Y174A were tested by MST and ITC.

Sequence of recombinant gamma-aminobutyric acid receptor-associated protein (rGABARAP) (A0A6J1T1Q2 1-118): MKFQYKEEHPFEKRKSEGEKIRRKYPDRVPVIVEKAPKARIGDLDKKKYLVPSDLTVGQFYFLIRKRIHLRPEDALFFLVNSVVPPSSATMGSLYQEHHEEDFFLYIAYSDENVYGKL
Sequence of rGABARAP^Y174A (A0A6J1T1Q2 entry or part of it, stated change not applied): as the sequence (A0A6J1T1Q2 1-118) above

## C=CC(C)(O)CCC=C(C)C (centres unmarked) [Linalool, 3,7-dimethylocta-1,6-dien-3-o1]
[1]
  LC50 (fiducial limits): >243 µg/mL
  LC90 (fiducial limits): >243 µg/mL
[2]
  LC50 (fiducial limits): >243 µg/mL
  LC90 (fiducial limits): >243 µg/mL
[3]
  LC50 (fiducial limits): 345 µg/mL (≈ 2240 µM)
  LC90 (fiducial limits): 1700 µg/mL (≈ 11000 µM)
[4]
  LC50 (fiducial limits): 30.6 µg/mL (≈ 198 µM)
  LC90 (fiducial limits): 176 µg/mL (≈ 1140 µM)
[5]
  LC50 (fiducial limits): 550 µg/mL (≈ 3570 µM)
  LC90 (fiducial limits): 4330 µg/mL (≈ 28100 µM)
[6]
  LT50 (fiducial limits): 1.28 h
[7]
  LC50: 7 µg/mL (≈ 45.4 µM)
[8]
  Kd: 6.89 µM
[9]
  Kd: 16.3 ± 6.79 µM
